Read-outs that look alike come from different tables or passages of the source. Numbered stars: 1 amine (or outer) side, 2 acyl side, 3 side chain; on linkers, the order of the positions; unused ones are H or OH. Suc = O=C(CCC(=O)[*:2])[*:1]
Legend:
[1] = system: Escherichia coli (ATCC 53868); assay: Disk diffusion assay (Kirby-Bauer), E. coli; type: cell-based; details: disk potency 20 μg, 8 mm discs, 16-18 hours at 37° C.
[2] = system: Staphilococcus aureus (ATCC 35556); assay: Disk diffusion assay (Kirby-Bauer), S. aureus; type: cell-based; details: disk potency 20 μg, 8 mm discs, 16-18 hours at 37° C.
[3] = target: RRE RNA hairpin (internal loop IIB); assay: SPR analysis of interaction with RRE RNA hairpin; type: binding, HIV-1
RREc hairpin = assay: SPR binding specificity relative to control RREc hairpin; parameters: species or system HIV-1
Method: (§1) The interaction of these biphenyl and terphenyl compounds with the RRE RNA hairpin (SEQ. ID. No 1) was analysed using surface plasmon resonance (SPR) experiments(19). In addition to the RRE, two control RREc (SEQ. ID. No 2) and TARc (SEQ. ID. No 3) hairpins were also immobilised on the chips. In the RREc hairpin the internal loop forming the Rev high-affinity binding site is replaced with a G:G opposition, whereas in the TARc hairpin this loop is substituted with the HIV-1 Tat-binding UCU bulge(20). In this way, applicants could simultaneously assess the interaction of each ligand with RRE, RREc and TARc, obtaining important information about binding selectivity. In addition, the SPR methodology allows deduction of binding stoichiometries, which are likewise related to the specificity of the interaction between a ligand and a given RNA species. These are key considerations in the nucleic acid recognition field(4, 5, 14).
(§2) The Surface Plasmon Resonance (SPR) experiments were carried out at 25° C. with a Biacore T100 optical biosensor system, 4-channel streptavidin-derivatized Series S SA chips, and either 10 mM MES (pH 6.25), 150 mM NaCl, 1 mM EDTA and 0.005% P20 or 10 mM HEPES pH 7.4, 150 mM NaCl, 3 mM EDTA and 0.005% P20 aqueous solutions as mobile phases. After immobilizing approximately 300 response units (RU) of the RRE, RREc and TARc RNA hairpins on the chips, the compounds were injected during 10-minute periods at a flow rate of 20 μL/min and at concentrations generally ranging from 0.01 μM to 100.0 μM, and then allowed to dissociate for 10 more minutes. The RNA surfaces were regenerated with solutions containing 0.5 to 1 M NaCl and 10 to 100 mM NaOH, depending on the ligand.
(§3) RNA-ligand SPR equilibrium dissociation constants (Kd) were determined by fitting the sensorgrams to one-site or two-site equations:
(§4) [formula] [formula] where RU is the response in the steady-state region of the sensorgrams, C is the concentration of free compound in equilibrium with the complex, RUmax is the maximum response and RI is an offset term accounting for the bulk refractive index contribution of the sample. In these models, Kd, RUmax and RI are adjustable parameters, and the stoichiometry of each binding site was determined by comparing the fitted RUmax values with the predicted ones, calculated from the molecular weights of RNA and compound and the amount of RNA in the flow cell(32). The two-site equation was only utilized if it provided a clear curve-fitting improvement over the one-site model. The specificity of the RRE interaction was quantified by calculating the Kd(RREc)/Kd(RRE) and Kd(RRE)/Kd(TARc) ratios. All SPR experiments were double-referenced(33).

TARc hairpin = assay: SPR binding specificity relative to control TARc hairpin; parameters: species or system HIV-1
Method: as §1, §2, §3
as §4, with “The specificity of the RRE interaction was quantified by calculating the Kd(RREc)/Kd(RRE) and Kd(RRE)/Kd(TARc) ratios.” left out

[4] = target: RRE-Rev34-50 interaction (RRE hairpin and frevp); assay: Fluorescence polarization displacement assay of the RRE-Rev34-50 interaction; type: binding, HIV-1
HIV-1 (NL4.3-Ren) = assay: microbe, parasite or virus in culture; type: cell-based; details: for EC50: Human immunodeficiency virus 1, 48 h, read-out: EC50 (NL4.3-Ren)
[5] = Cellular viability (CellTiter Glo); type: cell-based; details: human, MT-2 cells; 48 h, CellTiter Glo; read-out: CC50 (celular viability)
MT-2 cells = assay: Cellular viability (CellTiter Glo); type: cell-based
RRE hairpin = assay: Two-dimensional NMR (TOCSY) titration of the RRE hairpin; type: binding, HIV-1; details: D2O, pH 6.0
[6] = 25° C., pH 6.3, high affinity site when two-site model, JB-399 and IIS-530: ligand range 0.1-25 μM, read-out: Kd(RRE)
[7] = read-out: IC50 (RRE-Rev 50% inhibitory concentration), fluorescence polarization, 25° C., 60 nM RRE and 10 nM frevp
[8] = 25° C., pH 7.4, high affinity site when two-site model, footnote d compounds: ligand range 0.1-25 μM, read-out: Kd(RRE)

With CC1(C)S[C@@H]2[C@H](NC(=O)[C@H](N)c3ccccc3)C(=O)N2[C@H]1C(=O)O [Ampicillin, ampicillin] the “disk susceptibility of E. coli (diameter of the inhibition area)” value [1] was 25.6 ± 1.7 and the “disk susceptibility of S. aureus (diameter of the inhibition area)” value [2] was 38.1 ± 1.6.
With COc1cc(CCN)c(-c2ccc(-c3cc(CCN)c(OCc4ccccc4)c(CCN)c3)c(OC)c2)c(CCN)c1 [IIS-311, 2,2′,2″,2′″-(4″-(benzyloxy)-3′,4-dimethoxy-[1,1′:4′,1″-terphenyl]-2,3″,5″,6-tetrayl)tetraethanamine] the Kd [3, 6] was 9.4 ± 5.7 µM, the “Kd(RREc)/Kd(RRE)” value (RREc hairpin; 25° C., pH 6.3) was 4.9 and the “Kd(TARc)/Kd(RRE)” value (TARc hairpin; 25° C., pH 6.3) was 3.2. The IC50 [4, 7] was 162 ± 118 µM, the EC50 (HIV-1 (NL4.3-Ren)) was > 100 µM and the CC50 at 48 h [5] was > 100 µM.
In the case of COc1cc(CCN)c(-c2ccc(-c3cc(CCN)c(OCc4ccc(C(F)(F)F)cc4)c(CCN)c3)c(OC)c2)c(CCN)c1 [IIS-478, 2,2′,2″,2′″-(3′,4-dimethoxy-4″-((4-(trifluoromethyl)benzyl)oxy)-[1,1′:4′,1″-terphenyl]-2,3″,5″,6-tetrayl)tetraethanamine], the Kd [3, 8] is reported as 14 ± 5.1 µM, the “Kd(RREc)/Kd(RRE)” value (RREc hairpin; 25° C., pH 7.4) is reported as 10.3 and the “Kd(TARc)/Kd(RRE)” value (TARc hairpin; 25° C., pH 7.4) is reported as 9.6. The IC50 [4, 7] was 232 ± 32.7 µM, the EC50 (HIV-1 (NL4.3-Ren)) was > 100 µM and the CC50 at 48 h [5] was > 100 µM. The “disk susceptibility of E. coli (diameter of the inhibition area)” value [1] was “inactive” and the “disk susceptibility of S. aureus (diameter of the inhibition area)” value [2] was “inactive”.
For COc1cc(CCN)c(-c2ccc(-c3cc(CCN)c(OCC4CCCCC4)c(CCN)c3)c(OC)c2)c(CCN)c1 [IIS-530, 2,2′,2″,2′″-(4″-(cyclohexylmethoxy)-3′,4-dimethoxy-[1,1′:4′,1″-terphenyl]-2,3″,5″,6-tetrayl)tetraethanamine], the Kd [3, 6] was 46.2 ± 32 µM, the “Kd(RREc)/Kd(RRE)” value (RREc hairpin; 25° C., pH 6.3) was 1.3 and the “Kd(TARc)/Kd(RRE)” value (TARc hairpin; 25° C., pH 6.3) was 4.0. For the same compound, the IC50 [4, 7] was 75.5 ± 39.9 µM, the EC50 (HIV-1 (NL4.3-Ren)) was > 100 µM and the CC50 at 48 h [5] was > 100 µM.
With CCc1cc(-c2c(CCN)cc(OC)cc2CCN)ccc1-c1cc(CCN)c(O)c(CCN)c1 [IIS-792, 2″,3,5,6″-tetrakis(2-aminoethyl)-2′-ethyl-4″-methoxy-[1,1′:4′,1″-terphenyl]-4-ol] the Kd [3, 8] was 8.1 ± 1.8 µM, the “Kd(RREc)/Kd(RRE)” value (RREc hairpin; 25° C., pH 7.4) was 1.2 and the “Kd(TARc)/Kd(RRE)” value (TARc hairpin; 25° C., pH 7.4) was 1.6. The IC50 [4, 7] was 93.6 ± 24.4 µM, the “inhibition of HIV-1 replication (in words)” value (HIV-1 (NL4.3-Ren)) was “inhibited HIV-1 replication” and the EC50 (HIV-1 (NL4.3-Ren)) was 46.3 µM. The CC50 at 48 h [5] was > 100 µM and the “cellular toxicity (in words)” value (MT-2 cells) was “no cellular toxicity”.
For CCc1cc(-c2c(CCN)cc(OC)cc2CCN)cc(CC)c1-c1cc(CCN)c(O)c(CCN)c1 [IIS-806, 2″,3,5,6″-Tetrakis(2-aminoethyl)-2′,6′-diethyl-4″-methoxy-(1,1′:4′,1″-terphenyl)-4-ol chlorhydrate], the Kd [3, 8] was 8.1 ± 1.1 µM, the “Kd(RREc)/Kd(RRE)” value (RREc hairpin; 25° C., pH 7.4) was 1.1 and the “Kd(TARc)/Kd(RRE)” value (TARc hairpin; 25° C., pH 7.4) was 1.3. The IC50 [4, 7] was 56.4 ± 13.5 µM, the “inhibition of HIV-1 replication (in words)” value (HIV-1 (NL4.3-Ren)) was “inhibited HIV-1 replication” and the EC50 (HIV-1 (NL4.3-Ren)) was 64.1 µM. For the same compound, the CC50 at 48 h [5] was > 100 µM, the “cellular toxicity (in words)” value (MT-2 cells) was “no cellular toxicity” and the “RRE interaction by NMR chemical shift perturbation (in words)” value (RRE hairpin) was “greatest RNA chemical shift variations”.
For COc1cc(CCN)c(-c2cc(CCN)c(O)c(CCN)c2)c(CCN)c1 [JB-398, 2′,3,5,6′-tetrakis(2-aminoethyl)-4′-methoxy-[1,1′-biphenyl]-4-ol], the Kd [3, 6] was 31.1 ± 5 µM, the “Kd(TARc)/Kd(RRE)” value (TARc hairpin; 25° C., pH 6.3) was 3.7 and the IC50 ([4]; fluorescence anisotropy, read-out: IC50 (RRE-Rev34-50 inhibition)) was 22.1 µM. The EC50 (HIV-1 (NL4.3-Ren)) was > 100 µM, the CC50 at 48 h [5] was > 100 µM and the “RRE interaction by NMR chemical shift perturbation (in words)” value (RRE hairpin) was “weak”.
With COc1cc(CCN)c(-c2ccc(-c3cc(CCN)c(O)c(CCN)c3)cc2)c(CCN)c1 [JB-399, 2″,3,5,6″-tetrakis(2-aminoethyl)-4″-methoxy-[1,1′:4′,1″-terphenyl]-4-ol] the Kd [3, 6] was 14.4 ± 6.8 µM, the “Kd(TARc)/Kd(RRE)” value (TARc hairpin; 25° C., pH 6.3) was 11.7 and the IC50 [4, 7] was 23.4 ± 3.6 µM. For the same compound, the EC50 (HIV-1 (NL4.3-Ren)) was > 100 µM and the CC50 at 48 h [5] was > 100 µM.
For NC[C@H]1O[C@H](O[C@H]2[C@H](O)[C@@H](O[C@H]3O[C@H](CO)[C@@H](O)[C@H](N)[C@H]3O)[C@H](N)C[C@@H]2N)[C@H](O)[C@@H](O)[C@@H]1O [Kanamycin A, kanamycin A], the “disk susceptibility of E. coli (diameter of the inhibition area)” value [1] was 22.0 ± 2.0 and the “disk susceptibility of S. aureus (diameter of the inhibition area)” value [2] was 16.5 ± 1.1.
With NC[C@H]1O[C@H](O[C@H]2[C@H](O)[C@@H](O[C@H]3O[C@H](CO)[C@@H](O)[C@H](N)[C@H]3O)[C@H](N)C[C@@H]2N)[C@H](N)[C@@H](O)[C@@H]1O [Kanamycin B, kanamycin B] the “disk susceptibility of E. coli (diameter of the inhibition area)” value [1] was 20.0 ± 2.1 and the “disk susceptibility of S. aureus (diameter of the inhibition area)” value [2] was 16.7 ± 1.2.
In the case of COc1cc(CCN)c(-c2c(CCN)cc(OC)cc2CCN)c(CCN)c1 [SC-30, 2,2′,2″,2′″-(4,4′-dimethoxy-[1,1′-biphenyl]-2,2′,6,6′-tetrayl)tetraethanamine], the Kd [3, 6] is reported as > 100 µM, the IC50 [4, 7] is reported as 309 ± 68.9 µM and the EC50 (HIV-1 (NL4.3-Ren)) is reported as 50 to 100 µM. For the same compound, the CC50 at 48 h [5] was > 100 µM, the “disk susceptibility of E. coli (diameter of the inhibition area)” value [1] was “inactive” and the “disk susceptibility of S. aureus (diameter of the inhibition area)” value [2] was “inactive”. For the same compound, the “RRE interaction by NMR chemical shift perturbation (in words)” value (RRE hairpin) was “unspecific”.
In the case of NC[C@H]1O[C@H](O[C@H]2[C@H](O)[C@@H](O[C@H]3O[C@H](CO)[C@@H](O)[C@H](N)[C@H]3O)[C@H](N)C[C@@H]2N)[C@H](N)C[C@@H]1O [Tobramycin, tobramycin], the “disk susceptibility of E. coli (diameter of the inhibition area)” value [1] is reported as 18.8 ± 2.2 and the “disk susceptibility of S. aureus (diameter of the inhibition area)” value [2] is reported as 17.6 ± 0.8.
For “succynyl-TRQARRNRRRRWRERQRAAAAR-amide (Suc-TRQARRNRRRRWRERQRAAAAR-NH2; SMILES C[C@H](NC(=O)[C@H](C)NC(=O)[C@H](C)NC(=O)[C@H](CCCNC(=N)N)NC(=O)[C@H](CCC(N)=O)NC(=O)[C@H](CCCNC(=N)N)NC(=O)[C@H](CCC(=O)O)NC(=O)[C@H](CCCNC(=N)N)NC(=O)[C@H](Cc1c[nH]c2ccccc12)NC(=O)[C@H](CCCNC(=N)N)NC(=O)[C@H](CCCNC(=N)N)NC(=O)[C@H](CCCNC(=N)N)NC(=O)[C@H](CCCNC(=N)N)NC(=O)[C@H](CC(N)=O)NC(=O)[C@H](CCCNC(=N)N)NC(=O)[C@H](CCCNC(=N)N)NC(=O)[C@H](C)NC(=O)[C@H](CCC(N)=O)NC(=O)[C@H](CCCNC(=N)N)NC(=O)[C@@H](NC(=O)CCC(=O)O)[C@@H](C)O)C(=O)N[C@@H](C)C(=O)N[C@@H](CCCNC(=N)N)C(N)=O) [revp, reference compound]”, the Kd ([3]; one-site model, read-out: equilibrium dissociation constant Kd (RRE)) was 0.0042 ± 0.0034 µM, the “Kd(RREc)/Kd(RRE)” value (RREc hairpin) was 14.5 and the “Kd(TARc)/Kd(RRE)” value (TARc hairpin) was 4.4. It also gave a Ki ([4]; calculated from IC50, read-out: Ki inhibition constant) of 0.0041 ± 0.0008 µM.

— patent publication US9586943B2, “Bilaterally-substituted tricyclic compounds for the treatment of human immunodeficiency virus type-1 (HIV-1) infection and other diseases” (CENTRO DE INVESTIGACIÓN PRINCIPE FELIPE, priority 2013, dated 2017)
